From patent US20140057953A1, “BIARYL DERIVATIVES AS SELECTIVE 17BETA-HYDROXYSTEROID DEHYDROGENASE TYPE 2 INHIBITORS” (priority 2011, published 2014)

Experiments:
17β-HSD2 = molecular target: T1, 17β-HSD2 (Homo sapiens, UniProt P37059); assay: Inhibition of 17β-HSD2 in cell-free assay; format: biochemical; set-up: 17β-HSD2 was obtained directly from the microsomal fraction; from tissue; host or cells: human placenta, microsomal fraction; conditions: human placenta, microsomal fraction, substrate E2 500 nM, cofactor NAD+ 1500 μM; for inhibition at 1 µM: inhibitor concentration 1 μM
T1 sequence (P37059 1-387): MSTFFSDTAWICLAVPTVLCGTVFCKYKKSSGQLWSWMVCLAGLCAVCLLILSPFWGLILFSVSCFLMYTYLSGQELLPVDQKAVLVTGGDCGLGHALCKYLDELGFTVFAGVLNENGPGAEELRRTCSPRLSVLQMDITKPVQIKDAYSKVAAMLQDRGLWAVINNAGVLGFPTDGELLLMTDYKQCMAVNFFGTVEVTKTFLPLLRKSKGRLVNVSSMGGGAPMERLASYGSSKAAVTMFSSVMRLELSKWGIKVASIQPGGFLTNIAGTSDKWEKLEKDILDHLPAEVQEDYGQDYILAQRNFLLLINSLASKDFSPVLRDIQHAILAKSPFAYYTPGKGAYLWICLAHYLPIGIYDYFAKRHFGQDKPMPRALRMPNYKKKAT
Procedure: (§1) Fresh human placenta was homogenized. Cytosolic and microsomal fractions were separated by centrifugation at 1000 g, 10000 g and 150000 g. 17β-HSD2 was obtained directly from the microsomal fraction. For the partial purification of 17β-HSD1, the cytosolic fraction was precipitated with ammonium sulfate. Aliquots containing 17β-HSD1 or 17β-HSD2 were stored frozen.
Inhibitor stock solutions were prepared in DMSO. Final concentration of DMSO was adjusted to 1% in all samples. The enzymatic reaction was started by addition of a mixture of unlabelled- and [^3H]-E2 (final concentration: 500 nM, 0.11 μCi). After 20 min at 37° C., the incubation was stopped with HgCl2 and the mixture was extracted with ether. After evaporation, the steroids were dissolved in acetonitrile. E1 and E2 were separated using acetonitrile/water (45:55) as mobile phase in a C18 RP chromatography column (Nucleodur C18, 3 μm, Macherey-Nagel, Duren) connected to a HPLC-system (Agilent 1100 Series, Agilent Technologies, Waldbronn). Detection and quantification of the steroids were performed using a radioflow detector (Berthold Technologies, Bad Wildbad). The conversion rate was calculated according to the following equation: […]

17β-HSD1 = molecular target: T2, 17β-HSD1 (Homo sapiens, UniProt P14061); assay: Inhibition of 17β-HSD1 in cell-free assay; format: biochemical; conditions: human placenta, cytosolic fraction, substrate E1 500 nM, cofactor NADH 500 μM; for inhibition at 1 µM: inhibitor concentration 1 μM
T2 construct: For the partial purification of 17β-HSD1, the cytosolic fraction was precipitated with ammonium sulfate; from tissue; host or cells: human placenta, cytosolic fraction
T2 sequence (P14061 1-328): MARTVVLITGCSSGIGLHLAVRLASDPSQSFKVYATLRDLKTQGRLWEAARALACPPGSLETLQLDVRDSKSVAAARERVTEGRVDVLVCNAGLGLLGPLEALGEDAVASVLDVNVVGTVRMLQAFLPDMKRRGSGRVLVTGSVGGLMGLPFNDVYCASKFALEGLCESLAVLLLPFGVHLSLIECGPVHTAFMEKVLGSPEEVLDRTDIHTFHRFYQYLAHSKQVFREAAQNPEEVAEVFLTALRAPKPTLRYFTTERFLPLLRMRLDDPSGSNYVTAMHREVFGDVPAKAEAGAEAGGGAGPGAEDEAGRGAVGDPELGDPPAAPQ
Procedure: as §1
The 17β-HSD1 inhibition assay was performed similarly to the 17β-HSD2 test. The cytosolic fraction was incubated with NADH [500 μM], test compound and a mixture of unlabelled- and [^3H]-E1 (final concentration: 500 nM, 0.15 μCi) for 10 min at 37° C. Further treatment of the samples and HPLC separation was carried out as mentioned above for 17β-HSD2.

ERα = molecular target: T3, ERα (Homo sapiens, UniProt P03372); assay: ER affinity assay (ERα), [3H]-E2 displacement; conditions: Relative Binding Affinity, E2 = 100%; recombinant human protein
T3 sequence (P03372 1-595): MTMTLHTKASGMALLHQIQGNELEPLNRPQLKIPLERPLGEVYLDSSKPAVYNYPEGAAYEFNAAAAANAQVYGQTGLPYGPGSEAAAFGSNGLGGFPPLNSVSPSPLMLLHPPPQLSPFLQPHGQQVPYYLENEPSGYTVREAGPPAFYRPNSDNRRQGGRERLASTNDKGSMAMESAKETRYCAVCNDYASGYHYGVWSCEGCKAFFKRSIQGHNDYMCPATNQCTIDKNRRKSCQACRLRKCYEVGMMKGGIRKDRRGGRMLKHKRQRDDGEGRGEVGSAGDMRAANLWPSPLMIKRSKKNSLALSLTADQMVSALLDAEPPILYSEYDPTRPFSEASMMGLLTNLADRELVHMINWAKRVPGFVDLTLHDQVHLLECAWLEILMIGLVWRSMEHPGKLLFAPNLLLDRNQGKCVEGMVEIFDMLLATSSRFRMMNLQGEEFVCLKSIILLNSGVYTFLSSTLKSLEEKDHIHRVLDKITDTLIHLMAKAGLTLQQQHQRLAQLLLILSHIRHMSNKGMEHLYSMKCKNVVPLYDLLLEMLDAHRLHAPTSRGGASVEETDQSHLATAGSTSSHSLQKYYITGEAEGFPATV
Procedure: (§2) The binding affinity of selected compounds to the ERα and ERβ was determined according to Zimmermann et al. (Zimmermann, J. et al., 3. Steroid Biochem. Mol. Biol., 94:57-66 (2005)) using recombinant human proteins. Briefly, 0.25 μM of ERα or ERβ, respectively, were incubated with [^3H]-E2 (10 nM) and test compound for 1 h at room temperature. The potential inhibitors were dissolved in DMSO (5% final concentration). Evaluation of non-specific-binding was performed with diethylstilbestrol (10 μM). After incubation, ligand-receptor complexes were selectively bound to hydroxyapatite (5 g/60 ml TE-buffer). The formed complex was separated, washed and resuspended in ethanol. For radiodetection, scintillator cocktail (Quickszint 212, Zinsser Analytic, Frankfurt) was added and the samples were measured in a liquid scintillation counter (Rack Beta Primo 1209, Wallac, Turku). […] The compound concentration to displace 50% of the receptor bound [^3H]-E2 were determined. Unlabelled E2 was used as a reference. For determination of the relative binding affinity (RBA) the ratio was calculated according to the following equation: […]
(§3) After the assay was established and validated a modification was made to increase throughput. […] Results were reported as RBA ranges.

ERβ = ERβ (Homo sapiens, UniProt Q92731); assay: ER affinity assay (ERβ), [3H]-E2 displacement; conditions: Relative Binding Affinity, E2 = 100%; recombinant human protein
Procedure: as §2, §3

Chain of ERβ (Q92731 whole entry): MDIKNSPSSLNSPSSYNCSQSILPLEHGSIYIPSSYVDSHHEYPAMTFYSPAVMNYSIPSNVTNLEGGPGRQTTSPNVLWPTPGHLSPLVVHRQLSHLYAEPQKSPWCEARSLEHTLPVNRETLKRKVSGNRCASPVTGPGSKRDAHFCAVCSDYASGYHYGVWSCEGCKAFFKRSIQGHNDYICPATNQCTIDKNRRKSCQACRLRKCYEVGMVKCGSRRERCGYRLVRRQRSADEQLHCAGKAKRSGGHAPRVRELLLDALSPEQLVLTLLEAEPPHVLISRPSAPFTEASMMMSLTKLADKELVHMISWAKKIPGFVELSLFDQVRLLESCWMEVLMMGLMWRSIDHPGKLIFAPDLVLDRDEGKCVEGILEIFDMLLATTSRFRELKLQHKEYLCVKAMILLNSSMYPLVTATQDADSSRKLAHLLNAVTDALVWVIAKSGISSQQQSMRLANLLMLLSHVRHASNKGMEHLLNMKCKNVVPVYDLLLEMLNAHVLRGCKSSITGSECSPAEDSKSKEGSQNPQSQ

SMILES	ERα RBA (%) (ERα)	ERβ RBA (%) (ERβ)	also measured
CN(CCc1cccc(O)c1)C(=O)c1ccc(-c2cccc(O)c2)s1 [compound 18, N-(3-Hydroxyphenethyl)-5-(3-hydroxyphenyl)-N-methylthiophene-2-carboxamide]			inhibition at 1 µM (17β-HSD2): 37%; inhibition at 1 µM (17β-HSD1): 23%
COc1cccc(-c2ccc(C(=O)N(C)Cc3cccc(O)c3)s2)c1 [compound 45, N-(3-Hydroxybenzyl)-5-(3-methoxyphenyl)-N-methylthiophene-2-carboxamide]	<0.1%	<0.1%	IC50 (17β-HSD1): 23300 nM
COc1ccc(N(C)C(=O)c2ccc(-c3cccc(OC)c3F)s2)cc1 [compound 73, 5-(2-Fluoro-3-methoxyphenyl)-N-(4-methoxyphenyl)-N-methylthiophene-2-carboxamide]			inhibition at 1 µM (17β-HSD2): 49%; inhibition at 1 µM (17β-HSD1): 18%
CN(Cc1cccc(O)c1)C(=O)c1ccc(-c2ccc(F)cc2)s1 [compound 42, 5-(4-Fluorophenyl)-N-(3-hydroxybenzyl)-N-methylthiophene-2-carboxamide]	<0.1%	<0.1%	
CN(Cc1cccc(O)c1)C(=O)c1ccc(-c2ccccc2)s1 [compound 30, N-(3-Hydroxybenzyl)-N-methyl-5-phenylthiophene-2-carboxamide]	<0.1%	<0.1%	
COc1cccc(N(C)C(=O)c2ccc(-c3ccc(OC)cc3OC)s2)c1 [compound 57, 5-(2,4-Dimethoxyphenyl)-N-(3-methoxyphenyl)-N-methylthiophene-2-carboxamide]			IC50 (17β-HSD2): 313 nM; IC50 (17β-HSD1): 1930 nM
COc1cccc(N(C)C(=O)c2ccc(-c3ccc(F)c(OC)c3)s2)c1 [compound 62, 5-(4-Fluoro-3-methoxyphenyl)-N-(3-methoxyphenyl)-N-methylthiophene-2-carboxamide]			IC50 (17β-HSD2): 726 nM; IC50 (17β-HSD1): > 100000 nM
COc1cccc(-c2ccc(C(=O)N(C)c3cccc(OC)c3)s2)c1 [compound 47, N,5-bis(3-Methoxyphenyl)-N-methylthiophene-2-carboxamide]	<0.1%	<0.1%	
Cc1cccc(-c2ccc(C(=O)N(C)c3ccccc3F)s2)c1 [compound 74, N-(2-fluorophenyl)-N-methyl-5-m-tolylthiophene-2-carboxamide]	<0.1%	<0.1%	
COc1cccc(-c2ccc(C(=O)N(C)Cc3ccccc3)s2)c1 [compound 33, N-Benzyl-5-(3-methoxyphenyl)-N-methylthiophene-2-carboxamide]	<0.1%	<0.1%	
Cc1cccc(-c2ccc(C(=O)N(C)Cc3cccc(O)c3)cc2)c1 [compound 4, N-(3-hydroxybenzyl)-N,3′-dimethylbiphenyl-4-carboxamide]	<0.1%	<0.1%	
COc1cccc(CN(C)C(=O)c2ccc(-c3cccc(OC)c3)cc2)c1 [compound 1, 3′-Methoxy-N-(3-methoxybenzyl)-N-methylbiphenyl-4-carboxamide]	<0.1%	<0.1%	
CN(Cc1cccc(O)c1)C(=O)c1cccc(-c2ccc(O)cc2)c1 [compound 6, 4′-Hydroxy-N-(3-hydroxybenzyl)-N-methylbiphenyl-3-carboxamide]	<0.1%	<0.1%	

Second part, led by results:

ERα RBA (%) (ERα)	ERβ RBA (%) (ERβ)	SMILES	also measured
<0.1%	<0.1%	COc1cccc(-c2ccc(C(=O)N(C)c3ccccc3)s2)c1 [compound 67, 5-(3-Methoxyphenyl)-N-methyl-N-phenylthiophene-2-carboxamide]	
<0.1%	<0.1%	COc1ccc(-c2ccc(C(=O)N(C)Cc3cccc(OC)c3)s2)cc1 [compound 25, N-(3-Methoxybenzyl)-5-(4-methoxyphenyl)-N-methylthiophene-2-carboxamide]	
<0.1%	<0.1%	COc1ccc(-c2ccc(C(=O)N(C)c3cccc(OC)c3)s2)cc1 [compound 55, N-(3-Methoxyphenyl)-5-(4-methoxyphenyl)-N-methylthiophene-2-carboxamide]	
<0.1%	<0.1%	COc1cccc(N(C)C(=O)c2ccc(-c3cccc(C)c3F)s2)c1 [compound 66, 5-(2-Fluoro-3-methylphenyl)-N-(3-methoxyphenyl)-N-methylthiophene-2-carboxamide]	
<0.1%	<0.1%	COc1ccc(-c2ccc(C(=O)N(C)Cc3ccccc3)s2)cc1 [compound 35, N-Benzyl-5-(4-methoxyphenyl)-N-methylthiophene-2-carboxamide]	
<0.1%	<0.1%	COc1cccc(N(C)C(=O)c2ccc(-c3c(F)ccc(OC)c3F)s2)c1 [compound 65, 5-(2,6-Difluoro-3-methoxyphenyl)-N-(3-methoxyphenyl)-N-methylthiophene-2-carboxamide]	
<0.1%	<0.1%	COc1cccc(N(C)C(=O)c2ccc(-c3cccc(C)c3)s2)c1 [compound 64, N-(3-methoxyphenyl)-N-methyl-5-m-tolylthiophene-2-carboxamide]	
<0.1%	<0.1%	COc1cccc(N(C)C(=O)c2ccc(-c3cccc(SC)c3)s2)c1 [compound 63, N-(3-methoxyphenyl)-N-methyl-5-(3-(methylthio)phenyl)thiophene-2-carboxamide]	
<0.1%	<0.1%	COc1cccc(-c2ccc(C(=O)N(C)c3cccc(C)c3)s2)c1F [compound 72, 5-(2-Fluoro-3-methoxyphenyl)-N-methyl-N-(m-tolylthiophene)-2-carboxamide]	
